Measured values reported in ChEMBL document CHEMBL2440075, “In vitro structure-activity relationships of aplysinopsin analogs and their in vivo evaluation in the chick anxiety-depression model” (Bioorg Med Chem, 2013).
Activity calls are given as the source filed them. The calls are words filed in the database; no cut-off is given here.

How the values were obtained:
[1] = biological target: 5-hydroxytryptamine receptor 1D (Homo sapiens, UniProt P28221); assay: Displacement of [3H]5-CT from human recombinant 5HT1D receptor expressed in HEKT cells; assay type: cell-based
[2] = biological target: 5-hydroxytryptamine receptor 5A (Homo sapiens, UniProt P47898); assay: Displacement of [3H]LSD from human recombinant 5HT5A receptor expressed in Flp-In CHO cells; assay type: cell-based
[3] = biological target: 5-hydroxytryptamine receptor 2B (Homo sapiens, UniProt P41595); assay: Displacement of [3H]LSD from human recombinant 5HT2B receptor stably expressed in HEK cells; assay type: cell-based, HEK293
[4] = biological target: 5-hydroxytryptamine receptor 1B (Homo sapiens, UniProt P28222); assay: Displacement of [3H]5-CT from human recombinant 5HT1B receptor stably expressed in HEK cells; assay type: cell-based, HEK293
[5] = biological target: T1, 5-hydroxytryptamine receptor 1A (Homo sapiens, UniProt P08908); assay: Displacement of [3H]way100635 from human recombinant 5HT1A receptor stably expressed in CHO cells; assay type: cell-based
T1 sequence (P08908 whole entry): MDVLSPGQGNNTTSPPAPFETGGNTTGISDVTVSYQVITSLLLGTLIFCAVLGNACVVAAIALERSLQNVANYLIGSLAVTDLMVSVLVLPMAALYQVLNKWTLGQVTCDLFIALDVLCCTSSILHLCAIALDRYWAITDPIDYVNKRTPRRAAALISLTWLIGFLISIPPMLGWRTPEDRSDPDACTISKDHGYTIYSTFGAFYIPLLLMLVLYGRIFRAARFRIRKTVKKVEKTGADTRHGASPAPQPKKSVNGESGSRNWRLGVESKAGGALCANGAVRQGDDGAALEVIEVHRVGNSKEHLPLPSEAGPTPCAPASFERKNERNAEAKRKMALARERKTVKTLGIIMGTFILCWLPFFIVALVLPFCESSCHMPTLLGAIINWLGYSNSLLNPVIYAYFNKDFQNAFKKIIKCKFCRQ

[6] = biological target: 5-hydroxytryptamine receptor 2A (Rattus norvegicus, UniProt P14842); assay: Displacement of [3H]ketanserin from rat 5HT2A receptor stably expressed in 3T3 cells; assay type: cell-based
[7] = biological target: T2, 5-hydroxytryptamine receptor 2C (Homo sapiens, UniProt P28335); assay: Displacement of [3H]mesulergine from human recombinant 5HT2C receptor expressed in Flp-IN HEK cells; assay type: cell-based, HEK293
T2 sequence (P28335 whole entry): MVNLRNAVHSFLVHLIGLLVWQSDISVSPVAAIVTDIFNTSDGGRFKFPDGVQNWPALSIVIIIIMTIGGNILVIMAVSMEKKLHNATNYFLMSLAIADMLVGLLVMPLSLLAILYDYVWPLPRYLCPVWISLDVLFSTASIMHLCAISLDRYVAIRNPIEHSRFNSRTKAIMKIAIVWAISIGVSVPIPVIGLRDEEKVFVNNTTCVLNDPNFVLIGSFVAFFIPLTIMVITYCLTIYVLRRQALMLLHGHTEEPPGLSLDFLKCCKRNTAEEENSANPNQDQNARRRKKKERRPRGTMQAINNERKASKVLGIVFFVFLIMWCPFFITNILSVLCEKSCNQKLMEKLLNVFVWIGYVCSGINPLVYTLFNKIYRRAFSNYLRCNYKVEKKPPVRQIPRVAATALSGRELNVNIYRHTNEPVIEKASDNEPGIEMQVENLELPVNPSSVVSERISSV

[8] = biological target: T3, 5-hydroxytryptamine receptor 3A (Homo sapiens, UniProt P46098); assay: Displacement of [3H]GR65630 from human recombinant 5HT3 receptor expressed in HEKT cells; assay type: cell-based
T3 sequence (P46098 whole entry): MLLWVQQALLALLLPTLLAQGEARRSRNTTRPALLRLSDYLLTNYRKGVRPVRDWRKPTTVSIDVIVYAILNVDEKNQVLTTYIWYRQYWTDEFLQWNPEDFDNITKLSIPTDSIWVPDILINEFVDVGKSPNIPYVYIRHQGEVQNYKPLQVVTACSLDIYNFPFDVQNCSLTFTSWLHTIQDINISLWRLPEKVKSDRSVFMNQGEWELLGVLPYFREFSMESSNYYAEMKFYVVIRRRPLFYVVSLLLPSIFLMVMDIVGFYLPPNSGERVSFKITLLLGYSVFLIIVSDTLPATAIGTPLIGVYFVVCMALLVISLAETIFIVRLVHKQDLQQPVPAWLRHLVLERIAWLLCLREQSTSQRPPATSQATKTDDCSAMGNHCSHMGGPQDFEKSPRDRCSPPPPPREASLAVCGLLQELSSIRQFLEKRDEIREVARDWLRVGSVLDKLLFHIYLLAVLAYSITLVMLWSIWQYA

[9] = biological target: 5-hydroxytryptamine receptor 6 (Homo sapiens, UniProt P50406); assay: Displacement of [3H]LSD from human recombinant 5HT6 receptor stably expressed in HEK cells; assay type: cell-based, HEK293
[10] = biological target: 5-hydroxytryptamine receptor 1E (Homo sapiens, UniProt P28566); assay: Displacement of [3H]5-HT from human recombinant 5HT1E receptor stably expressed in HEK cells; assay type: cell-based, HEK293
[11] = tested on: Gallus gallus; assay: Effect on social seperation in chick anxiety-depression model assessed as attenuation of decline in distress vocalizations during depression-like phase at 30 nM/kg, ip 15 mins prior to behavioral testing measured after 45 to 60 mins; assay type: functional, organism-based
[12] = tested on: Gallus gallus; assay: Effect on social seperation in chick anxiety-depression model assessed as attenuation of decline in distress vocalizations during depression-like phase at 10 to 100 nM/kg, ip 15 mins prior to behavioral testing measured after 30 to 45 mins; assay type: functional, organism-based
[13] = tested on: Gallus gallus; assay: Effect on social seperation in chick anxiety-depression model assessed as reduction in distress vocalizations during anxiety-like phase at 10 to 100 nM/kg, ip 15 mins prior to behavioral testing measured for 1 to 5 mins; assay type: functional, organism-based
[14] = tested on: Gallus gallus; assay: Effect on isolation-stressor in chick anxiety-depression model assessed as reduction in distress vocalizations during anxiety-like phase at 10 to 100 nM/kg, ip 15 mins prior to behavioral testing measured for 1 to 5 mins; assay type: functional, organism-based
[15] = biological target: 5-hydroxytryptamine receptor 7 (Homo sapiens, UniProt P34969); assay: Displacement of [3H]LSD from human recombinant 5HT7 receptor stably expressed in HEK cells; assay type: cell-based, HEK293
[16] = tested on: Gallus gallus; assay: Effect on isolation-stressor in chick anxiety-depression model assessed as attenuation of decline in distress vocalizations during depression-like phase at 30 nM/kg, ip 15 mins prior to behavioral testing measured after 5 to 60 mins; assay type: functional, organism-based
[17] = tested on: Gallus gallus; assay: Effect on isolation-stressor in chick anxiety-depression model assessed as attenuation of decline in distress vocalizations during depression-like phase at 5 mg/kg, ip 15 mins prior to behavioral testing measured after 5 to 60 mins; assay type: functional, organism-based; parameters: dose 5 mg/kg
[18] = tested on: Gallus gallus; assay: Effect on social seperation in chick anxiety-depression model assessed as attenuation of decline in distress vocalizations during depression-like phase at 5 mg/kg, ip 15 mins prior to behavioral testing measured after 45 to 60 mins; assay type: functional, organism-based; parameters: dose 5 mg/kg
[19] = tested on: Gallus gallus; assay: Effect on social seperation in chick anxiety-depression model assessed as attenuation of decline in distress vocalizations during depression-like phase at 5 mg/kg, ip 15 mins prior to behavioral testing measured after 30 to 45 mins; assay type: functional, organism-based; parameters: dose 5 mg/kg

Sequence of 5-hydroxytryptamine receptor 2A (P14842 whole entry): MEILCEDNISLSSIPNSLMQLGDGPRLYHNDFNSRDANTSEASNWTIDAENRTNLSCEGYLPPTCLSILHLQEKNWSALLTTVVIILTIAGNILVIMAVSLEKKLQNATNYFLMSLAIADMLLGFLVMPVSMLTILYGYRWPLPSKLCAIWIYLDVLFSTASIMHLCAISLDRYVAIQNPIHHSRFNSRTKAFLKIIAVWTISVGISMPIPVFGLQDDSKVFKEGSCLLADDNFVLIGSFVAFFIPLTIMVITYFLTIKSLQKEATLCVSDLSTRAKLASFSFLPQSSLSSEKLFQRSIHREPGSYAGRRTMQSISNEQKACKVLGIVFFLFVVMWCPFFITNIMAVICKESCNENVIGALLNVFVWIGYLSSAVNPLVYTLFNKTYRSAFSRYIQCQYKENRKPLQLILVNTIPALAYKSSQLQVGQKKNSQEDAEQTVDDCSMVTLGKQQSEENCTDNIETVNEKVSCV
Sequence of 5-hydroxytryptamine receptor 1B (P28222 whole entry): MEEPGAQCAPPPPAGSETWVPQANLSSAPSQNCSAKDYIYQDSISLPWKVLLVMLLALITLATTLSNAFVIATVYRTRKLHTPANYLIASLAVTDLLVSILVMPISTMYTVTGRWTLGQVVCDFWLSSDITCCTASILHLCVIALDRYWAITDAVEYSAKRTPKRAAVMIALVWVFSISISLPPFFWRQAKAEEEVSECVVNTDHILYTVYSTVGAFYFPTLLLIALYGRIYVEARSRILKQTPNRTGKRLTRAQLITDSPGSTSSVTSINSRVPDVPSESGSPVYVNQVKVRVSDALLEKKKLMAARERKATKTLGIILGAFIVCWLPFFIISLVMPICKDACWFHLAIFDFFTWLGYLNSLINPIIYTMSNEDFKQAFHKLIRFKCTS
Sequence of 5-hydroxytryptamine receptor 2B (P41595 whole entry): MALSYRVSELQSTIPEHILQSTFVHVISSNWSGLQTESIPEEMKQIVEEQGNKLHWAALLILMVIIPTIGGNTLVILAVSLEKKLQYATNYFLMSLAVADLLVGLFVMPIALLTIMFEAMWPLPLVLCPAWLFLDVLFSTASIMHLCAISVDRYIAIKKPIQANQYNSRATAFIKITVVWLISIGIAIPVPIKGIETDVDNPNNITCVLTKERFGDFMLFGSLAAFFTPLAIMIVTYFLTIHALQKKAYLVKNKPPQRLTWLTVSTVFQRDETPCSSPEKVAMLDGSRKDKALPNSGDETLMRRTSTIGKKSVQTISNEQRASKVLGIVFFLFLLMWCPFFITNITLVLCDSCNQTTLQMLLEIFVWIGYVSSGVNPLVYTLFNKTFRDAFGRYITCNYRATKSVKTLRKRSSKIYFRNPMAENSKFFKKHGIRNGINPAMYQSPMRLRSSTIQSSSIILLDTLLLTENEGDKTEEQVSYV
Sequence of 5-hydroxytryptamine receptor 5A (P47898 whole entry): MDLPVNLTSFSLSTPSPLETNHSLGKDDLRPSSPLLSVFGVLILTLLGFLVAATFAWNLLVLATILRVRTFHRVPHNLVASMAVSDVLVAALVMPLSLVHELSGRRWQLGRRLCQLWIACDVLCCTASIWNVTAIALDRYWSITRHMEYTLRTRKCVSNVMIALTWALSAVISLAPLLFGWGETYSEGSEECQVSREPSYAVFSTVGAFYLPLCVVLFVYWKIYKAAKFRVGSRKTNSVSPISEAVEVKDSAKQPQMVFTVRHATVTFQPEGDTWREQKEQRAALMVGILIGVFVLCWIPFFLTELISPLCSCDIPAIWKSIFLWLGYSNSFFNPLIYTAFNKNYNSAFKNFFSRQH
Sequence of 5-hydroxytryptamine receptor 1D (P28221 whole entry): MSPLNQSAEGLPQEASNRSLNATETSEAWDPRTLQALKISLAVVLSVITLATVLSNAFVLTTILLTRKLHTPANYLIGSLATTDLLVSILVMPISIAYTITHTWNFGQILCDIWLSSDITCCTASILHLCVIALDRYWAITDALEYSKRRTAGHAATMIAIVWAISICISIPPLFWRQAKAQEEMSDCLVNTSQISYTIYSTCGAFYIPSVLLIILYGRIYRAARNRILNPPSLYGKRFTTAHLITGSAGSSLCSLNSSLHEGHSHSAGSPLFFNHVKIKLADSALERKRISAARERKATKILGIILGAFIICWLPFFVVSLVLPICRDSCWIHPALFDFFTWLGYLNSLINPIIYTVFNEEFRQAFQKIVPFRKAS
Sequence of 5-hydroxytryptamine receptor 1E (P28566 whole entry): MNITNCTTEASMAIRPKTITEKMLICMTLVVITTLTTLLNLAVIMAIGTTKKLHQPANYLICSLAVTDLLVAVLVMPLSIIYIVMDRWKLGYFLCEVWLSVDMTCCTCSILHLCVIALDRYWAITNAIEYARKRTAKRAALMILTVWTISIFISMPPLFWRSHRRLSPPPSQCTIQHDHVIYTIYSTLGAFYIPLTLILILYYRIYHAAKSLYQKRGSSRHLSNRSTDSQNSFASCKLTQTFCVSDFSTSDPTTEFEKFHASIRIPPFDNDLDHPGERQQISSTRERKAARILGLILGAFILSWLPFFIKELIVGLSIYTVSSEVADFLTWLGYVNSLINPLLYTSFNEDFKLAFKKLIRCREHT
Sequence of 5-hydroxytryptamine receptor 6 (P50406 whole entry): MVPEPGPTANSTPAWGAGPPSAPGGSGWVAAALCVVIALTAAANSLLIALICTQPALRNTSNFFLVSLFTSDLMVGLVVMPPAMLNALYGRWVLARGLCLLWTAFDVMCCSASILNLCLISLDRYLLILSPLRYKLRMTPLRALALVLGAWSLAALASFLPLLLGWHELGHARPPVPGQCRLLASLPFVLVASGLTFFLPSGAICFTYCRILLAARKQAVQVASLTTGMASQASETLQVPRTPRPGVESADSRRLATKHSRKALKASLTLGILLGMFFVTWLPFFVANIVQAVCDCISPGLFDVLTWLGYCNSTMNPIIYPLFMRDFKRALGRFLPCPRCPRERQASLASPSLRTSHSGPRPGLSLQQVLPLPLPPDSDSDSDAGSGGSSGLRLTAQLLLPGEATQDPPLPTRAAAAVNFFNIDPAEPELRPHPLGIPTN
Sequence of 5-hydroxytryptamine receptor 7 (P34969 whole entry): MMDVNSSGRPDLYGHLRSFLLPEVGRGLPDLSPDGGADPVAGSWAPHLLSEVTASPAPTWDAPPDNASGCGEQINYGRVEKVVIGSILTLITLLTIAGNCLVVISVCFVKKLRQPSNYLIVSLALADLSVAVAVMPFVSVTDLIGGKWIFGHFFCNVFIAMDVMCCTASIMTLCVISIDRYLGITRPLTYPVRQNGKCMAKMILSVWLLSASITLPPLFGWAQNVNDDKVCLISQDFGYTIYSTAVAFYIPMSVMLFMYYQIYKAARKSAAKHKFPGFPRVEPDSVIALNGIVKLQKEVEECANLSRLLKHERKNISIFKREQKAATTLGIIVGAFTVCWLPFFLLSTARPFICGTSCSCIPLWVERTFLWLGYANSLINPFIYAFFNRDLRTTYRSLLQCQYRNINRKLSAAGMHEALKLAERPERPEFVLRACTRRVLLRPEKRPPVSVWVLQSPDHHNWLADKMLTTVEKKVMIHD

Row | Structure (SMILES) | Ki [1] [nM] | Ki [2] [nM] | Ki [3] [nM] | Ki [4] [nM] | Ki [5] [nM] | Ki [6] [nM] | Ki [7] [nM] | Ki [8] [nM] | Ki [9] [nM] | Ki [10] [nM] | Activity [11] | Activity [12] | Activity [13] | Activity [14] | Ki [15] [nM] | Activity [16] | Activity [17] | Activity [18] | Activity [19]
1 | C/N=C1\NC(=O)/C(=C\c2c[nH]c3cccc(Br)c23)N1C | > 10000 | 1450 | 99 | > 10000 | 4610 | 662 | 320 | 5920 | 1410 | – | – | – | – | – | – | – | – | – | –
2 | CN1C(=N)N(C)/C(=C/c2c[nH]c3c(Br)cccc23)C1=O | > 10000 | – | 349 | > 10000 | 1810 | – | 3010 | 1220 | – | > 10000 | – | – | – | – | – | – | – | – | –
3 | N=C1NC(=O)/C(=C\c2c[nH]c3ccc(Br)cc23)N1 | – | 89 | 51 | – | – | 58 | 35 | – | 742 | – | Active | inactive | Active | inactive | 512 | Active | – | – | –
4 | CN1C(=N)N(C)/C(=C/c2c[nH]c3cccc(Br)c23)C1=O | 6830 | 7830 | 589 | > 10000 | 315 | > 10000 | 2760 | 656 | – | > 10000 | – | – | – | – | – | – | – | – | –
5 | CN(C)CCCN1c2ccccc2CCc2ccccc21 | – | – | – | – | – | – | – | – | – | – | – | – | – | – | – | – | Active | Active | Active
